The numbers were not newly measured in Sander's compilation of Henry's law constants (doi:10.1063/1.1562632), which cites them from elsewhere.

Where “and” joins values, the source holds several entries; their conditions need not be identical. Equal entries are not always repeated.

A short description of this data set: Henry solubility constant Hcp at 298.15 K (mol/(m3 Pa)). The conditions noted are these: reference: Li et al. (2003); cited value.
As to `Clc1cc(-c2cc(Cl)c(Cl)c(Cl)c2Cl)c(Cl)c(Cl)c1Cl` [2,2',3,3',4,4',5,5'-octachlorobiphenyl], the “Henry solubility constant Hcp” value was 0.15 and 0.23. As to `Clc1cc(Cl)c(-c2ccc(Cl)c(Cl)c2Cl)cc1Cl` [2,2',3,4,4',5'-hexachlorobiphenyl], the “Henry solubility constant Hcp” value was 0.025 and 0.033. For `Clc1cc(Cl)c(-c2cc(Cl)c(Cl)cc2Cl)cc1Cl` [2,2',4,4',5,5'-hexachlorobiphenyl], the “Henry solubility constant Hcp” value is 0.04 and 0.051.

`Clc1cc(Cl)c(-c2c(Cl)cc(Cl)cc2Cl)c(Cl)c1` [2,2',4,4',6,6'-hexachlorobiphenyl]: the “Henry solubility constant Hcp” value was 0.013 and 0.011. For the compound `Clc1ccc(Cl)c(-c2cc(Cl)c(Cl)cc2Cl)c1` [2,2',4,5,5'-pentachlorobiphenyl], the “Henry solubility constant Hcp” value is 0.032 and 0.041. On to `Clc1ccc(Cl)c(-c2cc(Cl)ccc2Cl)c1` [2,2',5,5'-tetrachlorobiphenyl], for which the “Henry solubility constant Hcp” value is 0.035 and 0.04. For `Clc1ccc(-c2cc(Cl)c(Cl)cc2Cl)cc1Cl` [2,3',4,4',5-pentachlorobiphenyl], the “Henry solubility constant Hcp” value is 0.031 and 0.069. With `Clc1ccc(-c2ccc(Cl)c(Cl)c2Cl)cc1Cl` [2,3,3',4,4'-pentachlorobiphenyl], the “Henry solubility constant Hcp” value is 0.03 and 0.072. `Clc1cc(-c2ccccc2)c(Cl)c(Cl)c1Cl` [2,3,4,5-tetrachlorobiphenyl]: the “Henry solubility constant Hcp” value is 0.049 and 0.05. As for `Clc1ccc(-c2cc(Cl)ccc2Cl)cc1` [2,4',5-trichlorobiphenyl], the “Henry solubility constant Hcp” value was 0.027 and 0.029. Take `Clc1ccc(-c2ccccc2Cl)cc1` [2,4'-dichlorobiphenyl]: the “Henry solubility constant Hcp” value was 0.038 and 0.044. `Clc1ccc(-c2ccc(Cl)cc2)cc1` [4,4'-dichlorobiphenyl]: the “Henry solubility constant Hcp” value is 0.07 and 0.075.
